Laboratory results from US20260184689A1, “PIPERIDINE-SUBSTITUTED BENZOIC ACID COMPOUND, AND PHARMACEUTICAL COMPOSITION AND USE THEREOF” (SHANGHAI YISHENG BIOPHARMACEUTICAL COMPANY LIMITED, priority 2022, published 2026).

Assays:
[1] = test system: LPS-induced complement activation; test: In vivo efficacy assay of LPS-induced complement activation in mice; settings: female C57BL/6J mice, LPS 100 μg intraperitoneal, PO
Experimental: Experimental objective: To investigate the inhibitory effect of the compounds of the present disclosure on complement activation in mice induced by LPS stimulation.
Experimental animals: Female C57BL/6J mice, 7 to 9 weeks old, weighing between 17 to 23 g.
Experimental procedure: 100 μg of lipopolysaccharide (LPS) in Salmonella typhimurium (Sigma) dissolved in 100 μL of sterile PBS was intraperitoneally injected to induce complement activation in mice. Negative control animals were intraperitoneally injected 100 μL of sterile PBS and administered alone by tube feeding (PO). Positive control animals were intraperitoneally injected LPS and PO drug vehicles (0.5% (w/v) methyl cellulose and 0.5% (v/v) Tween 80).
Sample collection: 0.3 mL of blood samples were collected from the orbital venous plexus. All blood samples were added to commercially available EDTA-K2 anticoagulant tubes with a specification of 1.5 mL. After collection, within half an hour, the blood sample was centrifuged at 4° C., 3000 g for 10 min to aspirate the supernatant plasma, which was put in dry ice immediately, and stored in a refrigerator at −80° C. for Western blot analysis of downstream C3d protein levels after complement activation.
Sample analysis: Mouse plasma (5 μL)+Lysis buffer (27.5 μL)+Loading buffer (12.5 μL)+Reducing buffer (5 μL) were mixed well and incubated at 100° C. for 15 min with a loading volume of 5 μL/well, i.e., a loading volume of plasma of 0.5 μL per well.
Test compounds: positive compound LNPO23, the final product of Example 158, the final products (compound 159A and compound 159B) of Example 159, and compound 11 of Example 75.

[2] = Pharmacokinetic activity assay in mice; format: in vivo; settings: IV 1 mg/kg, PO 10 mg/kg
Experimental: Experimental objective: The test substance was administered to mice via single-dose intravenous and oral gavage routes, and its plasma concentration was measured to evaluate the pharmacokinetic characteristics in mice.
Experimental animals: C57 mice or other available test mice
IV dose: 1 mg/kg; vehicle: 0.5% DMSO or 0.5% MeOH-5% pharmaceutical grade polyethylene glycol-15 hydroxystearate-PBS
Sample collection: 0.03 mL of blood samples were collected from the saphenous vein in experimental animals by puncture at each time point, and the actual blood collection time was recorded. All blood samples were added to commercially available EDTA-K2 anticoagulant tubes with a specification of 1.5 mL (supplied by Jiangsu Kangjian Medical Apparatus Co., Ltd.). After collection, within half an hour, the blood sample was centrifuged at 4° C., 3000 g for 10 min to aspirate the supernatant plasma, which was put in dry ice immediately, and stored in a refrigerator at −80° C. for LCMS/MS analysis.
Blood sampling points: 5 min, 15 min, 30 min, 1 hour, 2 hours, 4 hours, 6 hours, 8 hours, 12 hours, 20 hours, 24 hours.
Test compounds: positive compound LNP023, the final product of Example 158, the final products (compound 159A and compound 159B) of Example 159, and compound 11 of Example 75.

[3] = test system: Sheep Anti-Rat Fx1A Serum induced Heymann nephritis; test: In vivo efficacy assay of passive Heymann nephritis in rats; settings: male SD rats, intragastric twice a day for 14 days, 5, 20 and 60 mpk; LNP023 60 mpk
Description: Experimental objective: To investigate the ability of the compounds of the present disclosure to improve renal function of Sheep Anti-Rat Fx1A Serum induced Heymann nephritis in rats, including the evaluation of reducing proteinuria level and improving renal tissue damage.
Experimental animals: Male SD rats, 7 to 10 weeks old, weighing between 200 to 300 g.
Urine was collected from rats on D-2 before administration. On D1, the first day of the experiment, animals in the control group (group 1) were administered 5 mL/kg of Sheep Non-Immune serum via a single tail vein injection; animals in the model and administration groups (groups 2 to 6) were administered 5 mL/kg of Sheep Anti-Rat Fx1A Serum via a single tail vein injection.
The rats were treated by intragastric administration twice a day with an interval of 8 hours and a volume of 10 mL/kg. On D1, 1 hour before modeling, animals in groups 1 and 2 were administered blank vehicle 20% PEG400/10% Solutol/70% water; animals in group 3 were administered LNP023 (60 mpk); animals in groups 4 to 6 were administered different concentrations of synthetic compounds (5 mpk, 20 mpk, and 60 mpk); 8 hours after the first administration, each group was administered again with the same dose and volume as the first administration. From D2 to D14, animals in each group were administered different compounds or vehicles for 14 consecutive days (including the first day) according to the dose, volume, administration method, and frequency on D1.
Urine collection: Urine samples were collected from rats on D-2 before administration, and 2 to 4 hours and 4 to 6 hours after the first administration on D4, D6, D8, D11, and D14 after administration, transferred to EP tubes and stored in a refrigerator at −80° C. to −60° C. for the detection of urine protein and creatinine in rats.
Kidney sample collection: All animals were euthanized with CO2 inhalation anesthesia on Day 15, and bilateral kidneys were collected. The left kidney was cut transversely, and the right kidney was cut longitudinally. Half of the transversely cut kidney (left side) and half of the longitudinally cut kidney (right side) were fixed in formalin (placed in the same EP tube).
4. […] Urine total protein (uTP) in rats was detected without dilution; if exceeding the upper detection limit, it was 10-fold diluted (10 μL of sample+90 μL of saline (0.9% saline)) first (Decrease mode); if still exceeding the upper detection limit after 10-fold dilution, it was 100-fold diluted (2 μL of sample+198 μL of saline (0.9% saline)) (Increase mode). Data were read by the analytical instrument HITACHI LST008AS(P). • (2) Kidney pathological scoring: The degree of drug damage to rat kidneys (paraffin sections) was analyzed by HE staining. […]

CCCC1CCN(C(=O)c2c(OC)cc(C)c3[nH]ccc23)C(c2ccc(C(=O)O)cc2)C1 (single isomer, unassigned) [Compound 159B]
inhibition of LPS-induced complement activation (plasma C3d levels), compared with LNP023 [1]: superior or equivalent | clearance rate during in vivo metabolism, compared with LNP023 [2]: comparable or superior | half-life during in vivo metabolism, compared with LNP023 [2]: comparable or superior | performance in the kidney disease model through urine and kidney pathology analysis, compared with LNP023 [3]: performed better
